The subject of this series is GENE-TOX genotoxicity assays, various organisms and cells. Description: GENE-TOX mutagenicity studies. The note with it: for call: Assay Type: In vivo carcinogenicity studies.
Where [1] appears, read: Species/Cell Type: Nonhuman, Assay Code: CCG+, Evaluation Type: Evaluation A (Pre-1980).
Setting [2] is: Species/Cell Type: Saccharomyces cerevisiae, Assay Type: Mitotic recombination or gene conversion, Assay Code: YEC-, Evaluation Type: Evaluation A (Pre-1980).
The mark [3] stands for this setting: Species/Cell Type: Salmonella typhimurium (one or more of the five standard strains: TA98, TA100, TA1535, TA1537, and TA1538), Assay Type: Histidine reverse gene mutation, Ames assay, Assay Code: SAL+*, Activation: With metabolic activation, Evaluation Type: Evaluation A (Pre-1980).
Where [4] appears, read: Species/Cell Type: Mammalian polychromatic erythrocytes, Assay Type: Micronucleus test, chromosome aberrations, Assay Code: MNT+, Evaluation Type: Evaluation B (Post-1980).
[5] abbreviates: Species/Cell Type: Saccharomyces cerevisiae, Assay Type: Reverse gene mutation, Assay Code: YERT, Evaluation Type: Evaluation A (Pre-1980).
The mark [6] stands for this setting: Species/Cell Type: Drosophila melanogaster, Assay Type: Sex-linked recessive lethal gene mutation, Assay Code: SRL+, Evaluation Type: Evaluation A (Pre-1980).
The mark [7] stands for this setting: Species/Cell Type: Salmonella typhimurium, Assay Type: Forward and reverse gene mutation, host-mediated assay, Assay Code: HMA-, Evaluation Type: Evaluation A (Pre-1980).
[8] abbreviates: Species/Cell Type: Saccharomyces cerevisiae, Assay Type: Mitotic recombination or gene conversion, Assay Code: YEH-, Evaluation Type: Evaluation A (Pre-1980).
Setting [9] is: Species/Cell Type: Salmonella typhimurium (one or more of the five standard strains: TA98, TA100, TA1535, TA1537, and TA1538), Assay Type: Histidine reverse gene mutation, Ames assay, Assay Code: SAL-, Evaluation Type: Evaluation A (Pre-1980).

Calls of active or inactive are those of the source. No rule for the calls is given here.

`Cc1cccc(N(C)C(=S)Oc2ccc3ccccc3c2)c1`: the mutagenic call (Species/Cell Type: Neurospora crassa, Assay Type: Aneuploidy, chromosome aberrations, Assay Code: NEN-, Evaluation Type: Evaluation A (Pre-1980)) is “inactive; negative”.

Turning to `CC(=O)Nc1ccc(-c2ccc(NC(C)=O)cc2)cc1`, the call under setting [1] is “active; positive”.

Turning to `C#C[C@]1(O)CC[C@H]2[C@@H]3CCc4cc(OC)ccc4[C@H]3CC[C@@]21C` (tested in a mixture with another compound), the mutagenic call (Species/Cell Type: Human, Sex: Male, Assay Type: Sperm morphology, Assay Code: SPH+, Evaluation Type: Evaluation A (Pre-1980)) was “active; positive”.

Consider `CN(C)N`, for which the mutagenic call is “inactive; negative” (Species/Cell Type: Human diploid fibroblasts, Assay Type: Unscheduled DNA synthesis (UDS) in vitro, DNA effects, Assay Code: UDH-*, Activation: With metabolic activation, Evaluation Type: Evaluation A (Pre-1980)); “no conclusion” (Species/Cell Type: Mammalian polychromatic erythrocytes, Assay Type: Micronucleus test, chromosome aberrations, Assay Code: MNTT, Evaluation Type: Evaluation A (Pre-1980)); “inactive; negative” (Species/Cell Type: Mouse lymphoma (L5178Y) cells, Assay Type: Forward gene mutation at the thymidine kinase (TK) locus, chromosome aberrations, Assay Code: L51-*, Activation: With metabolic activation, Evaluation Type: Evaluation A (Pre-1980)); “inactive; negative” (Species/Cell Type: Mouse, Sex: Male, Assay Type: Sperm morphology, Assay Code: SPI-, Evaluation Type: Evaluation A (Pre-1980)); “inactive; negative” (Species/Cell Type: Rodents, Sex: Male, Assay Type: Dominant lethal test, Assay Code: DLT-, Evaluation Type: Evaluation A (Pre-1980)); “inactive; negative” under setting [2]. Further, the mutagenic call is, setting by setting: under setting [3], “active; positive”; (Species/Cell Type: Syrian hamster embryo (SA7/SHE) cells, Assay Type: Cell transformation, viral enhanced, Assay Code: CT7+, Evaluation Type: Evaluation A (Pre-1980)) “active; positive”. Moreover, under setting [1], the call was “active; positive”.

Regarding `Cc1cc(O)ccc1[N+](=O)[O-]`, the mutagenic call (Species/Cell Type: Allium cepa, Assay Type: Chromosome aberrations, Assay Code: ALC+, Evaluation Type: Evaluation A (Pre-1980)) was “active; positive”.

As for `Clc1ccccc1`, under setting [4], the mutagenic call was “active; positive”.

Turning to `CCCCOc1ccc(CC(=O)NN)cc1CN(CC)CC`, the mutagenic call under setting [5] was “no conclusion”.

`C=CN(CC)N=O`: the mutagenic call (Species/Cell Type: Arabidopsis species, Assay Type: Gene mutation, Assay Code: ARM+D, Dose Response: With dose response, Evaluation Type: Evaluation A (Pre-1980)) was “active; positive”.

For `c1ccncc1`, the mutagenic call is “no conclusion” (Species/Cell Type: Mammalian polychromatic erythrocytes, Assay Type: Micronucleus test, chromosome aberrations, Assay Code: MNTT, Evaluation Type: Evaluation B (Post-1980)) and “active; positive” (Species/Cell Type: Nonhuman, Assay Type: Sister-chromatid exchange (SCE) in vitro, Assay Code: SC2+D, Dose Response: With dose response, Evaluation Type: Evaluation A (Pre-1980)).

Take `O=NN1CCC(Cl)CC1`: the mutagenic call by setting is: under setting [6], “active; positive”; under setting [3], “active; positive”.

With `CN[C@H]1Cc2c[nH]c3c(Cl)ccc(c23)[C@]12C=C(C)C(=O)O2`, where the note is “Species/Cell Type: Bacillus subtilis (H17 vs M45), Assay Type: Rec-assay, spot test, DNA effects (bacterial DNA repair), Assay Code: REW-, Evaluation Type: Evaluation A (Pre-1980)”, the mutagenic call was “inactive; negative”.

Consider `Cc1cc(O)c2c(c1)C(=O)c1cc(OC3O[C@@H](C)[C@H](O)[C@@H](O)[C@H]3O)cc(O)c1C2=O` (stereo partly specified), for which the mutagenic call under setting [3] was “active; positive”.

As to `CN(C)CCC(=O)c1ccc2c(c1)OCO2`, the mutagenic call under setting [7] was “inactive; negative”.

For the compound `N#Cc1c(Cl)c(Cl)c(Cl)c(C#N)c1Cl`, the mutagenic call (Species/Cell Type: Hordeum vulgare (barley), Assay Type: Chromosome aberrations, Assay Code: HOC-, Evaluation Type: Evaluation A (Pre-1980)) is “inactive; negative”. In addition, the call (Species/Cell Type: Nonhuman, Assay Code: CCG+L, Evaluation Type: Evaluation A (Pre-1980)) is “active; positive”.

`CN(C)S(=O)(=O)N(SC(F)(Cl)Cl)c1ccccc1`: the mutagenic call (Species/Cell Type: Bacillus subtilis (H17 vs M45), Assay Type: Rec-assay, spot test, DNA effects (bacterial DNA repair), Assay Code: REWT, Evaluation Type: Evaluation A (Pre-1980)) is “no conclusion” and the mutagenic call under setting [2] was “inactive; negative”.

Turning to `OCC1=CCN2CC[C@H](O)[C@@H]12`, the mutagenic call (Species/Cell Type: Drosophila melanogaster, Assay Type: Sex-linked recessive lethal gene mutation, Assay Code: SRLT, Evaluation Type: Evaluation A (Pre-1980)) is “no conclusion”.

For the compound `CC1=C(/C=C/C(C)=C/C=C/C(C)=C\C(=O)O)C(C)(C)CCC1`, the mutagenic call (Species/Cell Type: Human, Assay Type: Sister-chromatid exchange (SCE) in vitro, Assay Code: SC1+D, Dose Response: With dose response, Evaluation Type: Evaluation B (Post-1980)) was “active; positive”.

On to `CCC[C@@H]1C[C@@H](C(=O)N[C@@H]([C@H]2O[C@H](SC)[C@H](O)[C@@H](O)[C@H]2O)[C@@H](C)O)N(C)C1`, for which the mutagenic call (Species/Cell Type: Bacillus subtilis (H17 vs M45T), Assay Type: Rec-assay, spot test, DNA effects (bacterial DNA repair), Assay Code: REXT, Evaluation Type: Evaluation A (Pre-1980)) is reported as “no conclusion”.

For `COc1ccccc1-c1ccccc1`, the mutagenic call reads like this: under setting [8], “inactive; negative”; under setting [9], “inactive; negative”.

`O=C(O)C(c1ccc(Cl)cc1)c1ccc(Cl)cc1`: the mutagenic call by setting is: under setting [6], “active; positive”; (Species/Cell Type: Nonhuman, Assay Type: Chromosome aberrations in vitro, Assay Code: CY&-, Evaluation Type: Evaluation A (Pre-1980)) “inactive; negative”; (Species/Cell Type: Salmonella typhimurium, Serratia marcesens, Assay Type: Forward and reverse gene mutation, host-mediated assay, Assay Code: HM2-, Evaluation Type: Evaluation A (Pre-1980)) “inactive; negative”.

On to `Cc1cc(NC(=O)C2=C(O)c3ccccc3S(=O)(=O)N2C)no1`, for which the mutagenic call (Species/Cell Type: Human lymphocytes, Assay Type: Sister-chromatid exchange (SCE) in vivo, Assay Code: SCY+, Evaluation Type: Evaluation B (Post-1980)) was “active; positive”.

With `C[S-].C[S-].N#[O+].N#[O+].N#[O+].N#[O+].[Fe].[Fe]`, for the setting “Species/Cell Type: Nonhuman, Assay Type: Sister-chromatid exchange (SCE) in vitro, Assay Code: SC2T, Evaluation Type: Evaluation B (Post-1980)”, the mutagenic call is “no conclusion”.

Take `Clc1ccc(C2CO2)cc1` (stereo unspecified): the mutagenic call (Species/Cell Type: Salmonella typhimurium (one or more of the five standard strains: TA98, TA100, TA1535, TA1537, and TA1538), Assay Type: Histidine reverse gene mutation, Ames assay, Assay Code: SALT, Evaluation Type: Evaluation A (Pre-1980)) is listed as “no conclusion”.

With `CCCCCN(C)N=O`, the mutagenic call (Species/Cell Type: Escherichia coli polA (W3119 vs P3478), Assay Type: Rec-assay, DNA effects (bacterial DNA repair), Assay Code: RE1+, Evaluation Type: Evaluation A (Pre-1980)) was “active; positive”.

For the compound `CC[C@@]1(O)C[C@H](O[C@H]2C[C@H](N)[C@H](O)[C@H](C)O2)c2c(cc3c(c2O)C(=O)c2c(O)cccc2C3=O)[C@H]1C(=O)OC`, the mutagenic call under setting [3] was “active; positive”.

Turning to `CCN(CC)Cc1cc(Br)ccc1OCC(=O)N/N=C\c1ccccc1`, the mutagenic call under setting [5] is recorded as “no conclusion”.

Take `CN1CCN(c2ccc([N+](=O)[O-])c3no[n+]([O-])c23)CC1`: for the setting “Species/Cell Type: Salmonella typhimurium (one or more of the five standard strains: TA98, TA100, TA1535, TA1537, and TA1538), Assay Type: Histidine reverse gene mutation, Ames assay, Assay Code: SAL+, Evaluation Type: Evaluation A (Pre-1980)”, the mutagenic call is “active; positive”.

Turning to `CC(=O)Nc1ccc2c(c1)Cc1cc(O)ccc1-2`, the mutagenic call runs as follows: (Species/Cell Type: Escherichia coli polA (W3110 vs P3478), Assay Type: Rec-assay, DNA effects (bacterial DNA repair), Assay Code: RE2+, Evaluation Type: Evaluation A (Pre-1980)) “active; positive”; (Species/Cell Type: Escherichia coli polA (W3119 vs P3478), Assay Type: Rec-assay, DNA effects (bacterial DNA repair), Assay Code: RE1T, Evaluation Type: Evaluation A (Pre-1980)) “no conclusion”; (Species/Cell Type: Human diploid fibroblasts, Assay Type: Unscheduled DNA synthesis (UDS) in vitro, DNA effects, Assay Code: UDH-, Evaluation Type: Evaluation A (Pre-1980)) “inactive; negative”; (Species/Cell Type: Human, Assay Type: Sister-chromatid exchange (SCE) in vitro, Assay Code: SC1-, Evaluation Type: Evaluation B (Post-1980)) “inactive; negative”; under setting [8], “inactive; negative”; under setting [3], “active; positive”. Besides, the mutagenic call under setting [7] is “inactive; negative”.

Consider `CCCC(=O)Nc1ccc(OCC(O)CNC(C)C)c(C(C)=O)c1` (stereo unspecified), for which the mutagenic call under setting [4] was “active; positive”.

Regarding `Cc1cc(Cl)ccc1N`, the call under setting [1] was “active; positive”.

Regarding `O=C(O)c1ccccc1`, the mutagenic call was “inactive; negative” (Species/Cell Type: Escherichia coli WP2, Assay Type: Tryptophan reverse gene mutation, Assay Code: WP2-*, Activation: With metabolic activation, Evaluation Type: Evaluation A (Pre-1980)); “inactive; negative” (Species/Cell Type: Escherichia coli WP2 UVRA, Assay Type: Tryptophan reverse gene mutation, Assay Code: WPU-*, Activation: With metabolic activation, Evaluation Type: Evaluation A (Pre-1980)); “active; positive” (Species/Cell Type: Human, Assay Type: Sister-chromatid exchange (SCE) in vitro, Assay Code: SC1+, Evaluation Type: Evaluation B (Post-1980)); “inactive; negative” under setting [8]; “inactive; negative” under setting [9].
